# ChEMBL document CHEMBL2074142, “Interaction of anionic cephalosporins with the intestinal and renal peptide transporters PEPT 1 and PEPT 2” (Biochim Biophys Acta, 1997)
# Legend:
# Type in all cases: functional, cell-based
# [1] = target: T1, Solute carrier family 15 member 2 (Homo sapiens) (UniProt Q16348); test: TP_TRANSPORTER: inhibition of Gly-Sar uptake (Gly-Sar: 50 uM, Cefdinir: 10000 uM) in PEPT2-expressing HeLa cells
# T1 sequence (whole entry): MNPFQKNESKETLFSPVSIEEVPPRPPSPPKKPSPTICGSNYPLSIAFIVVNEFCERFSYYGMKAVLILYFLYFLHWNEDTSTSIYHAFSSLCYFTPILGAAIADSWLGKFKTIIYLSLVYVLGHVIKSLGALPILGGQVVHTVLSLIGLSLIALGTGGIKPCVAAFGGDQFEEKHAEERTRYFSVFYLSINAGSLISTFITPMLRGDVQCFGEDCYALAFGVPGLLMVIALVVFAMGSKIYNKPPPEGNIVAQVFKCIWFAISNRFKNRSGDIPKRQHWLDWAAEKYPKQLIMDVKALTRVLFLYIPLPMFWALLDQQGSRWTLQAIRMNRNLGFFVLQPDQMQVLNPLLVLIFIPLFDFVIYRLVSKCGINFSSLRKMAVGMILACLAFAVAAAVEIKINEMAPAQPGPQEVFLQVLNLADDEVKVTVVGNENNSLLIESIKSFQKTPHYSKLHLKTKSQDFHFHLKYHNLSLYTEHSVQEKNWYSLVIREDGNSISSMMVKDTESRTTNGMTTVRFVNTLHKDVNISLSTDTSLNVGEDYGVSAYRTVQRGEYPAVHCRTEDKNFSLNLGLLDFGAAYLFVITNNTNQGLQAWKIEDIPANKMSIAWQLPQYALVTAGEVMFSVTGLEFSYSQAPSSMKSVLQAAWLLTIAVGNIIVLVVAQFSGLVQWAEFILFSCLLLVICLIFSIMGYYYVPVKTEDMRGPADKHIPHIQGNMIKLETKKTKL
# [2] = target: T2, Solute carrier family 15 member 2 (Rattus norvegicus, UniProt Q63424); test: TP_TRANSPORTER: inhibition of Gly-Sar uptake (Gly-Sar: 5 uM) in SKPT cells
# T2 sequence (Q63424 whole entry): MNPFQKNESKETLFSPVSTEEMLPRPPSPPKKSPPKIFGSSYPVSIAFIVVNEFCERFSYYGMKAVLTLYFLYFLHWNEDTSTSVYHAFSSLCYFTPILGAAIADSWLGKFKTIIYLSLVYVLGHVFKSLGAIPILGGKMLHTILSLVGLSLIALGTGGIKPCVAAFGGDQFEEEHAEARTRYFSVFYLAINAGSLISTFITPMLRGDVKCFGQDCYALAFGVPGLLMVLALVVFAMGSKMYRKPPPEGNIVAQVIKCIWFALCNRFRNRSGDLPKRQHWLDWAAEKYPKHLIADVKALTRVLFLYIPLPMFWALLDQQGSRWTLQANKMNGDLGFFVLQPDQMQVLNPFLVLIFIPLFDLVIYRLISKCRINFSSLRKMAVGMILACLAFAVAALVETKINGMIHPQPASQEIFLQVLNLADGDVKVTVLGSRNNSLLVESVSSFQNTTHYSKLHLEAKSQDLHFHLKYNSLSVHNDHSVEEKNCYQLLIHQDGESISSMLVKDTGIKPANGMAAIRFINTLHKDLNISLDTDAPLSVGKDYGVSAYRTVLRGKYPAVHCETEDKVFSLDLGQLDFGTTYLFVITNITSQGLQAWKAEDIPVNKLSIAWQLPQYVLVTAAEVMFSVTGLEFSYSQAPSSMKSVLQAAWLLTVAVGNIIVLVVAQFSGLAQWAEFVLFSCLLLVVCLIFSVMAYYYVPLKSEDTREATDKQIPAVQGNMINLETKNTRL
# [3] = target: T3, Solute carrier family 15 member 1 (Homo sapiens) (UniProt P46059); test: TP_TRANSPORTER: inhibition of Gly-Sar uptake (Gly-Sar: 20 uM, Cefdinir: 10000 uM) in PEPT1-expressing HeLa cells
# T3 sequence (whole entry): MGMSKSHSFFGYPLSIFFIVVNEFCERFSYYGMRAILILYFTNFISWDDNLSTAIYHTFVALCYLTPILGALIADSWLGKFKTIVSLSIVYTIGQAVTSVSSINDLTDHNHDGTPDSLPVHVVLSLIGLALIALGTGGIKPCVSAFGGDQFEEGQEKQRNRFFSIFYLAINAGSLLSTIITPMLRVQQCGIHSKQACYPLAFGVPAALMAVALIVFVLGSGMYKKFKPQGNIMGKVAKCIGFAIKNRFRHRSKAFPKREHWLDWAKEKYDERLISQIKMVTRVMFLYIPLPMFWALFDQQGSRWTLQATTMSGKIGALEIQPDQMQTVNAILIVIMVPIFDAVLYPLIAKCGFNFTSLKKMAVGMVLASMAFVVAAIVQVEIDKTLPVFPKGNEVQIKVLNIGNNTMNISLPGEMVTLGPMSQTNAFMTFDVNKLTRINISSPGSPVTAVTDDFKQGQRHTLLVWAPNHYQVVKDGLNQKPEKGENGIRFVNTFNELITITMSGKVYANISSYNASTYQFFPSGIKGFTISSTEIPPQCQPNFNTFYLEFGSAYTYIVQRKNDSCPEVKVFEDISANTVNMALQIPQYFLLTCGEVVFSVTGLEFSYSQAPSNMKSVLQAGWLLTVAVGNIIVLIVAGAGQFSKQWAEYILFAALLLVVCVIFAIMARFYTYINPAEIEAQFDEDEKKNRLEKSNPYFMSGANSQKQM
# [4] = target: T1, Solute carrier family 15 member 2 (Homo sapiens); test: TP_TRANSPORTER: inhibition of Gly-Sar uptake (Gly-Sar: 50 uM, Cefixime: 10000 uM) in PEPT2-expressing HeLa cells
# [5] = target: T4, Solute carrier family 15 member 1 (Homo sapiens, UniProt P46059); test: TP_TRANSPORTER: inhibition of Gly-Sar uptake (Gly-Sar: 5 uM) in Caco-2 cells
# T4 sequence (P46059 whole entry): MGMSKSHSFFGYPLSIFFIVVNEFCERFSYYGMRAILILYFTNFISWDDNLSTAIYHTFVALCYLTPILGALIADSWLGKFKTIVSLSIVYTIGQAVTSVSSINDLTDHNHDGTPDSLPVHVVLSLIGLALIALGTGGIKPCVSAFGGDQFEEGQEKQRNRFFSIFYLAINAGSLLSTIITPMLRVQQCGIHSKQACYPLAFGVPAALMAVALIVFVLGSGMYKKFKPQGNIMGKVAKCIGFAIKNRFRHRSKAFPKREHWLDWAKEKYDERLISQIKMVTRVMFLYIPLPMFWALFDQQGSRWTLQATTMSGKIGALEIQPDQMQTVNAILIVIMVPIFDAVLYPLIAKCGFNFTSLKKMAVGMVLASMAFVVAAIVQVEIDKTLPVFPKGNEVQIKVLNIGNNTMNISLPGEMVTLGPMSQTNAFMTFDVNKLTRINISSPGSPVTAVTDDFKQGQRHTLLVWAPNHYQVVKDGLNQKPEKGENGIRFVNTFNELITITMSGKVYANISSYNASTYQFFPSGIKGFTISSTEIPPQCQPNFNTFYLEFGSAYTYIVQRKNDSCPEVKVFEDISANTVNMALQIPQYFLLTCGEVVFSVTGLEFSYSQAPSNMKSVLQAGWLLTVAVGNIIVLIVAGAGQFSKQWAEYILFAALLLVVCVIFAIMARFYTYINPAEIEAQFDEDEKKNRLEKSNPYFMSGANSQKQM
# [6] = target: T3, Solute carrier family 15 member 1 (Homo sapiens); test: TP_TRANSPORTER: inhibition of Gly-Sar uptake (Gly-Sar: 20 uM, Cefixime: 10000 uM) in PEPT1-expressing HeLa cells
# [7] = target: T4, Solute carrier family 15 member 1; test: TP_TRANSPORTER: inhibition of Gly-Sar uptake in Caco-2 cells
# [8] = target: T2, Solute carrier family 15 member 2; test: TP_TRANSPORTER: inhibition of Gly-Sar uptake in SKPT cells
# [9] = target: T5, Solute carrier family 15 member 2 (Homo sapiens, UniProt Q16348); test: TP_TRANSPORTER: inhibition of Gly-Sar uptake in PEPT2-expressing HeLa cells
# T5 sequence (Q16348 whole entry): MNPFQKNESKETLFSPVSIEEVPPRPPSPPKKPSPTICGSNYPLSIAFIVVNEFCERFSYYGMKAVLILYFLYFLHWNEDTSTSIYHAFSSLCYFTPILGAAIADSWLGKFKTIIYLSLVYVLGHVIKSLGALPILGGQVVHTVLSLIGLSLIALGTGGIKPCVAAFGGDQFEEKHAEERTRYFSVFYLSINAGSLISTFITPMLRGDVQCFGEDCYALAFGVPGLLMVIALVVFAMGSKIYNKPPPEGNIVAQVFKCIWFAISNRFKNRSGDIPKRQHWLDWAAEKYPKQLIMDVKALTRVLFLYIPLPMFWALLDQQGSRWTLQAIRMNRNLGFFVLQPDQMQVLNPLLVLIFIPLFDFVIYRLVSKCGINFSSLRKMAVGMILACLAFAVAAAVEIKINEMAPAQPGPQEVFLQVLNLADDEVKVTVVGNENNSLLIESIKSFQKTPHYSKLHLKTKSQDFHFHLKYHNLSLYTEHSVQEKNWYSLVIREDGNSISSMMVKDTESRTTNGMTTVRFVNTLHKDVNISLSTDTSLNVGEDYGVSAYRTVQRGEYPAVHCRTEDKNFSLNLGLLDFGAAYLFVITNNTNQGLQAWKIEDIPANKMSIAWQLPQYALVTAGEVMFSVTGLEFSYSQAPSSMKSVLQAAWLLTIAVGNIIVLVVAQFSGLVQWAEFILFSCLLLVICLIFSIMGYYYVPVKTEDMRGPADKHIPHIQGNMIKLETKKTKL
# [10] = target: T4, Solute carrier family 15 member 1; test: TP_TRANSPORTER: inhibition of Gly-Sar uptake in PEPT1-expressing HeLa cells
# [11] = substrate: CN(CC(=O)O)C(=O)CN; test: TP_TRANSPORTER: uptake in SKPT cells
molecule,measurement,setting,value
C=CC1=C(C(=O)O)N2C(=O)[C@@H](NC(=O)/C(=N\O)c3csc(N)n3)[C@H]2SC1 [CEFDINIR],Activity,[1],0.48
same,IC50,[2],10000 µM
same,inhibition,[3],31%
C=CC1=C(C(=O)O)N2C(=O)[C@@H](NC(=O)/C(=N\OCC(=O)O)c3csc(N)n3)[C@H]2SC1 [CEFIXIME],IC50,[2],3200 µM
same,Activity,[4],0.54
same,IC50,[5],10000 µM
same,inhibition,[6],44%
Nc1nc(/C(=C/CC(=O)O)C(=O)N[C@@H]2C(=O)N3C(C(=O)O)=CCS[C@H]23)cs1 [CEFTIBUTEN],Ki,[7],870 µM
same,Ki,[8],380 µM
same,Ki,[9],90 µM
same,Ki,[10],710 µM
"Solute carrier family 15 member 2 (Rattus norvegicus), Q63424 (protein) MNPFQKNESKETLFSPVSTEEMLPRPPSPPKKSPPKIFGSSYPVSIAFIVVNEFCERFSYYGMKAVLTLYFLYFLHWNEDTSTSVYHAFSSLCYFTPILGAAIADSWLGKFKTIIYLSLVYVLGHVFKSLGAIPILGGKMLHTILSLVGLSLIALGTGGIKPCVAAFGGDQFEEEHAEARTRYFSVFYLAINAGSLISTFITPMLRGDVKCFGQDCYALAFGVPGLLMVLALVVFAMGSKMYRKPPPEGNIVAQVIKCIWFALCNRFRNRSGDLPKRQHWLDWAAEKYPKHLIADVKALTRVLFLYIPLPMFWALLDQQGSRWTLQANKMNGDLGFFVLQPDQMQVLNPFLVLIFIPLFDLVIYRLISKCRINFSSLRKMAVGMILACLAFAVAALVETKINGMIHPQPASQEIFLQVLNLADGDVKVTVLGSRNNSLLVESVSSFQNTTHYSKLHLEAKSQDLHFHLKYNSLSVHNDHSVEEKNCYQLLIHQDGESISSMLVKDTGIKPANGMAAIRFINTLHKDLNISLDTDAPLSVGKDYGVSAYRTVLRGKYPAVHCETEDKVFSLDLGQLDFGTTYLFVITNITSQGLQAWKAEDIPVNKLSIAWQLPQYVLVTAAEVMFSVTGLEFSYSQAPSSMKSVLQAAWLLTVAVGNIIVLVVAQFSGLAQWAEFVLFSCLLLVVCLIFSVMAYYYVPLKSEDTREATDKQIPAVQGNMINLETKNTRL",Km,[11],74.5 µM
